Structures are written as SMILES.

Data set [1] deals with Synaptic vesicular amine transporter (Rattus norvegicus, UniProt Q01827). The data set can be described thus: Inhibition of [3H]dopamine uptake at VMAT2 in rat striatal synaptic vesicles by scintillation spectrometry.
The target in data set [2] is Voltage-gated inwardly rectifying potassium channel KCNH2 (Homo sapiens, UniProt Q12809). Description: Displacement of [3H]Dofetilide from human ERG expressed in HEK293 cells after 60 mins by scintillation spectrometry. (Displacement assays read how much labelled ligand stays bound in the presence of the test substance.)
Voltage-gated inwardly rectifying potassium channel KCNH2, sequence (Q12809 whole entry): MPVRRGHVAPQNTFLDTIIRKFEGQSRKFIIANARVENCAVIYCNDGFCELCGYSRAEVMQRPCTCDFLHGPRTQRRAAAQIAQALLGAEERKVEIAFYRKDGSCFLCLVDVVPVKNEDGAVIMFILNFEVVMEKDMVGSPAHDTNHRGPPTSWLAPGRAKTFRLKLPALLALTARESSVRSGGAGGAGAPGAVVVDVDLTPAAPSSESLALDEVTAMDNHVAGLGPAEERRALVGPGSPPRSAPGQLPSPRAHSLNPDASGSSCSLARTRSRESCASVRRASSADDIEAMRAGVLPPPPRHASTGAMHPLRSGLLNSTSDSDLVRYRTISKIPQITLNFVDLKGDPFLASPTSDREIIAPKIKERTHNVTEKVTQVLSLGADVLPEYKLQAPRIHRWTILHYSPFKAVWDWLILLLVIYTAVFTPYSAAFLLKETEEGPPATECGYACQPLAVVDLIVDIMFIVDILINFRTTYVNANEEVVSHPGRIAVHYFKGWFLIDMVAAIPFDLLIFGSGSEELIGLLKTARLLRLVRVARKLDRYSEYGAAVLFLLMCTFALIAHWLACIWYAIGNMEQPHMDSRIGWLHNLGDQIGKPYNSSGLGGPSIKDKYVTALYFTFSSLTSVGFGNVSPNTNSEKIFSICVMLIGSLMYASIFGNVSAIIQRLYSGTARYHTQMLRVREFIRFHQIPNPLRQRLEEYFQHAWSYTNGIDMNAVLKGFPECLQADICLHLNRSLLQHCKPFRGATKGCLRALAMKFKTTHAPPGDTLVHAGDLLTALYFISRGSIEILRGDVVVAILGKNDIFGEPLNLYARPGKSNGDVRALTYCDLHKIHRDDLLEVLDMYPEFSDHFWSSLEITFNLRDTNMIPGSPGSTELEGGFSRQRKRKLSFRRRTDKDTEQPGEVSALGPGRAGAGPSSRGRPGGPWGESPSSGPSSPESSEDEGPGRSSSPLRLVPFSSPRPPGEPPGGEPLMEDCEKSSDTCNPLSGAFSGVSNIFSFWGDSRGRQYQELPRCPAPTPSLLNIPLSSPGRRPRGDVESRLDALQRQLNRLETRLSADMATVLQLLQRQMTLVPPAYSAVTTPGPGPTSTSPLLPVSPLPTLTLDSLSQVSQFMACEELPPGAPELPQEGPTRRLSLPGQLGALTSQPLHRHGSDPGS
The target of data set [3] is Sodium-dependent serotonin transporter (Rattus norvegicus, UniProt P31652). The data set can be described thus: Inhibition of [3H]serotonin uptake at SERT in rat striatal synaptosomes preincubated for 5 mins followed by radioligand addition measured after 10 mins by scintillation spectrometry. The class given is subcellular, Striatum.
Sodium-dependent serotonin transporter, sequence (P31652 whole entry): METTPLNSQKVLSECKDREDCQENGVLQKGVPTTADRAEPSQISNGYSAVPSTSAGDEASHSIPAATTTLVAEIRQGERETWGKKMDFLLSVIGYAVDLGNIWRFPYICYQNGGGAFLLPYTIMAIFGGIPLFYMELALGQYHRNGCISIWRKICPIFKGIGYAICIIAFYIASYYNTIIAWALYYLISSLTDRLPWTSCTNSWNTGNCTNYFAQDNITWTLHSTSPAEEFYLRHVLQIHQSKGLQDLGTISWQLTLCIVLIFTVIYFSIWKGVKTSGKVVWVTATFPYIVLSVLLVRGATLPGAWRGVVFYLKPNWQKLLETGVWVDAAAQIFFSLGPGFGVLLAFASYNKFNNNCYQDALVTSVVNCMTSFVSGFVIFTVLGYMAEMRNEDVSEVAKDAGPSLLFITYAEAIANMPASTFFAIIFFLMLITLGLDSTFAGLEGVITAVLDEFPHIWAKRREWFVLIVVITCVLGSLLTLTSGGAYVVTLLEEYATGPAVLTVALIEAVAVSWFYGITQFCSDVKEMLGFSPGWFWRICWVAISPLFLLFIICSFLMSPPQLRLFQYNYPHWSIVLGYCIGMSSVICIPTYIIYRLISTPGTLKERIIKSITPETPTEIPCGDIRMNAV
The nature of data set [4]: Half life in Sprague-Dawley rat plasma. Format: ADME, cell-free.
For data set [5], the target named is Sodium-dependent dopamine transporter (Rattus norvegicus, UniProt P23977). The data set can be described thus: Inhibition of [3H]dopamine uptake at dopamine transporter in rat striatal synaptosomes preincubated for 5 mins followed by radioligand addition measured after 10 mins by scintillation spectrometry. Format: subcellular, Striatum.
Sodium-dependent dopamine transporter, sequence (P23977 whole entry): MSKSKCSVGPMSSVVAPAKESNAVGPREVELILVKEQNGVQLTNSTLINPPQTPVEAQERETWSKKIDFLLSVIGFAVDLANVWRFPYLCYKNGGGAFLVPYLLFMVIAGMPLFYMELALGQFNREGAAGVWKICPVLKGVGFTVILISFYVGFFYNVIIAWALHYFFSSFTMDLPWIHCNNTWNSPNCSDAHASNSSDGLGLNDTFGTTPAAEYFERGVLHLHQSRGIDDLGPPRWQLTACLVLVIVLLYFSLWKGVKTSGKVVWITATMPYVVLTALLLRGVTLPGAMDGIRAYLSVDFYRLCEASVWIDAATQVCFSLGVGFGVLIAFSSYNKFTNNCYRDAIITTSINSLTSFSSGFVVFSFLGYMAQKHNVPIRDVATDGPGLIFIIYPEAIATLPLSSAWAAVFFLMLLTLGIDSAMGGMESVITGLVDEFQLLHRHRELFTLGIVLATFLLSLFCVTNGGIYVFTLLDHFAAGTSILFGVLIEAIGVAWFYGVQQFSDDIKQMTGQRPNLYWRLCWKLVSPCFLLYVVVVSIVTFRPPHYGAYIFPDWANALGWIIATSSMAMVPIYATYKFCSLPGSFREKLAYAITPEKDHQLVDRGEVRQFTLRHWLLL

Synaptic vesicular amine transporter, sequence (Q01827 whole entry): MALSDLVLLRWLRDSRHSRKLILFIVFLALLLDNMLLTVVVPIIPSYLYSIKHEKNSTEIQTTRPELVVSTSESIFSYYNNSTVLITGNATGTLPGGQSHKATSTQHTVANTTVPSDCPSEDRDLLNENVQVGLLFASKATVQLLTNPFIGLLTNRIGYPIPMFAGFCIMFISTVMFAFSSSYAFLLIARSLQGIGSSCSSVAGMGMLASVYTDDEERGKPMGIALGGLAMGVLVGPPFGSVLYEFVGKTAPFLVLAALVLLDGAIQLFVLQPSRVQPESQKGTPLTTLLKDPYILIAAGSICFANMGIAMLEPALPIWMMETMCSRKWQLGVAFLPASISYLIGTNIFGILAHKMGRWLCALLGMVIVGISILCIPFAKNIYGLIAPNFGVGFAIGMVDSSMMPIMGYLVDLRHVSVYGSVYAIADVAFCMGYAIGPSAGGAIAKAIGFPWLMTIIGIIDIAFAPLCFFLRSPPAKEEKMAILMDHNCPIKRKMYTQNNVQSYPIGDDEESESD

`COc1ccc(CCN2CCC(CCc3ccccc3OCCF)CC2)cc1`: in data set [1], the Ki was 73 nM. Besides, in data set [2], the IC50 stood at 350 nM.

`FCCOc1ccccc1CCN1CCN(CCc2ccccc2Cl)CC1`: the Ki in data set [1] stood at 14 nM; in data set [3] it was 72 nM. Also, in data set [2], the IC50 came to 850 nM.

In data set [4], `CN1[C@@H](CC(=O)c2ccccc2)CCC[C@H]1C[C@H](O)c1ccccc1` [LOBELINE] showed a half-life of 50 min.

For `COc1ccccc1CCN1CCC(CCc2cccc(OCCF)c2)CC1`, the Ki in data set [1] worked out at 61 nM; in data set [3], 470 nM. Also, in data set [2], the IC50 was 800 nM.

As for `FCCOc1ccc(CCN2CCN(CCc3ccccc3)CC2)cc1`, the Ki in data set [1] worked out at 600 nM; in data set [5], 2740 nM; in data set [3] it was 3370 nM. Besides, the IC50 in data set [2] is 3050 nM.

For `FCCOc1cccc(CCC2CCN(CCc3ccccc3)CC2)c1`, the Ki in data set [1] stood at 53 nM; in data set [5], 3140 nM.

For `FCCOc1ccc(CCN2CCN(CCc3ccccc3Cl)CC2)cc1`, the Ki in data set [1] is 450 nM; in data set [3], 480 nM. In data set [2], the IC50 stood at 1400 nM.

For `FCCOc1cccc(CCN2CCN(CCc3ccccc3)CC2)c1`, the affinity in data set [1], expressed as Ki, was 73 nM. In other words, the double-digit nanomolar range.

In the case of `COc1ccc(CCN2CCC(CCc3cccc(OCCF)c3)CC2)cc1`, the results for the Ki in data set [1] and in data set [3] were 67 nM and 660 nM, respectively. Besides, the IC50 in data set [2] was determined as 280 nM.

With `FCCOc1ccccc1CCC1CCN(CCc2ccc(F)cc2)CC1`, the Ki in data set [1] is 27 nM.

In turn, `COc1ccccc1CCN1CCC(CCc2ccccc2OCCF)CC1` came in with a Ki in data set [1] of 25 nM.

As for `FCCOc1cccc(CCN2CCC(CCc3ccccc3)CC2)c1`, the affinity in data set [1] corresponds to a Ki of 24 nM.

In data set [1], `FCCOc1ccccc1CCC1CCN(CCc2ccccc2)CC1` registered a Ki of 35 nM.

In the case of `FCCOc1ccccc1CCN1CCN(CCc2ccc(F)cc2)CC1`, the Ki in data set [1] stood at 24 nM; in data set [3], 300 nM.

Turning to `FCCOc1ccc(CCN2CCC(CCc3ccccc3)CC2)cc1`, the Ki in data set [1] was 150 nM; in data set [5], 1060 nM; in data set [3], 390 nM. In addition, in data set [2], the IC50 is 350 nM.

As to `FCCOc1ccc(CCC2CCN(CCc3ccccc3Cl)CC2)cc1`, the Ki was 190 nM in data set [1] and 3620 nM in data set [3].

One may read the Ki as the equilibrium dissociation constant of an inhibitor or competing ligand from its target. Read a low Ki as higher affinity. Usually IC50 stands for the concentration that gives 50% inhibition. Broadly, the half-life is the time needed for the level to fall by half in the phase considered. Read a low half-life as fast loss.

Source of the values: ChEMBL document CHEMBL4184167, “Fluoroethoxy-1,4-diphenethylpiperidine and piperazine derivatives: Potent and selective inhibitors of [3H]dopamine uptake at the vesicular monoamine transporter-2” (Bioorg Med Chem Lett, 2017).
